According to PubChem BioAssay (NCI):
“And” between values parts separate entries of the source, which are not always exact repeats. Equal values may be shown once.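 Values below derive from 48-hour exposures of cells grown in 96-well plates, with endpoints linearly interpolated between the two concentrations bracketing the appropriate inhibition level. The concentration for full growth arrest is given as TGI.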

Experiments:
Test in all cases: growth of human tumour cells (NCI), 48 h
HOP-62 NSCLC = system: HOP-62 NSCLC
K-562 leukemia = system: K-562 leukemia
KM20L2 colon = system: KM20L2 colon
NCI-H23 lung = system: NCI-H23 lung
SF-295 CNS = system: SF-295 CNS
SN12C renal = system: SN12C renal
SNB-19 CNS = system: SNB-19 CNS
SNB-78 CNS = system: SNB-78 CNS
SW-620 colon = system: SW-620 colon
PC-3 prostate = system: PC-3 prostate

Compound | TGI (HOP-62 NSCLC) | TGI (K-562 leukemia) | TGI (KM20L2 colon) | TGI (NCI-H23 lung) | TGI (SF-295 CNS) | TGI (SN12C renal) | TGI (SNB-19 CNS) | TGI (SNB-78 CNS) | TGI (SW-620 colon) | TGI (PC-3 prostate)
CC1(C)CC(c2c[nH]c3ccccc23)=CC2=Nc3ccccc3C21O (stereo unspecified) | > 100 µM | > 100 µM | > 100 µM | > 100 µM | > 100 µM | > 100 µM | > 100 µM | > 100 µM | > 100 µM | –
CCC(C)SC1SCC2C(=O)N(C)C3(CC3C)C(=O)OCC(NC(=O)c3nc4ccccc4cc3O)C(=O)NC(C)C(=O)N(C)C1C(=O)N(C)C1(CC1C)C(=O)OCC(NC(=O)c1nc3ccccc3cc1O)C(=O)NC(C)C(=O)N2C (stereo unspecified) | 0.00155 µM | – | 0.000446 µM | 0.000154 µM | 0.00153 µM | 9.55 µM | 0.0296 µM | 0.255 µM | 0.00439 µM and < 0.034 µM | 0.0049 µM
O=c1c2cccnc2ncn1CCN1CCCCC1 | > 100 µM | > 100 µM | > 100 µM | > 100 µM | > 100 µM | > 100 µM | > 100 µM | > 100 µM | > 100 µM | –
Clc1ccc2cccc3c2c1C1OC3c2ccccc21 (stereo unspecified) | > 100 µM | > 100 µM | > 100 µM | > 100 µM | > 100 µM | > 100 µM | > 100 µM | > 100 µM | > 100 µM | –
